From patent publication US20150296783A1, “SYNERGISTIC COMBINATION OF A ZOXAMIDE COMPOUND AND TERBUTRYN FOR DRY FILM PROTECTION” (ROHM AND HAAS COMPANY, priority 2012, published 2015)

Assays:
[1] = tested on: Chlorella sp. ATCC 7516; experiment: Algal efficacy testing of dry paint film (modified ASTM 5589), Chlorella; format: cell-based; conditions: 3 weeks; for Total conc (concentration chosen as minimum inhibitory concentration for SI): dry paint film, pass level ≧75% inhibition, total biocide in liquid paint
Method: (§1) Slurries containing 33% antimicrobial active ingredient (Zoxamide) and 45% antimicrobial ingredient Terbutryn were post added to a white, acrylic/silicone based outdoor paint free of biocides to give a total active ingredient concentration of […] respectively. These paints were then diluted with an antimicrobial free acrylic/silicone based paint and mixed to prepare targeted concentrations of antimicrobial compounds for the testing. The total biocides concentrations tested were 125, 250, 500, 1000, 2000 and 5000 ppm. After biocides addition or dilution, the paints were mixed 90 seconds with the horse power shaker (AXEL 75M3372/Agitateur SO-10MI) until uniformity was achieved. Paints containing different antimicrobial compounds at the same levels were mixed together in order to obtain the desired ratio of antimicrobial compounds. After one day, the paints were applied to Schleicher & Schuell filter paper at 280 μm wet film thickness and dried for 3 days at room temperature avoiding direct exposure to sunlight. Square discs (1.6 cm×1.6 cm) were cut out from each panel and were used as the substrate for algal efficacy tests. This sample size allowed for an agar border when the sample disc was placed into the well of the test plate.
(§2) Algal efficacy was tested according to modified ASTM 5589 which is a standard accelerated test method for determining resistance of various coatings (including paints) to algal defacement. To accommodate for high-throughput screening, this method was scaled down from petri dishes to 6-well plates. Bold Modified Basal Freshwater Nutrient Solution was used as growth medium. A single coated filter paper coupon was placed with a pair of sterile forceps at the center of the agar plug (on top) with the painted surface facing upwards. Algal inoculums were prepared by mixing equal concentrations (1×10^6 cfu/ml) and equal volumes of exponentially growing algae cultures.
(§3) Each well that contains a tested coupon was inoculated with 1750 μl of algal suspensions (1×10^6 cfu/ml) making sure that the whole surface (paint film as well as the agar surrounding it) was evenly covered. The plates were incubated at room temp (21° C.-25° C.) with cyclic exposure to light and dark phases, for a period of three weeks.
(§4) At the end of the three week incubation period, the samples were scored for percent inhibition regarding visible algal growth compared to the blank sample (0% inhibition).
(§5) The SI is calculated based on F .C. Kull et.
(§6) The minimal targeted inhibition was set at 75%, meaning a coupon with at least 75% algal growth inhibition was considered as a pass.

[2] = tested on: Stichococcus bacillaris SAG 379-1a / CCAP 379/1a; experiment: Algal efficacy testing of dry paint film (modified ASTM 5589), Stichococcus; format: cell-based; conditions: 3 weeks; for inhibition at 5000 ppm: Stichococcus bacillaris, 504 h, total conc 5000 ppm, visible algal growth vs blank; for Total conc (concentration chosen as minimum inhibitory concentration for SI): dry paint film, pass level ≧75% inhibition, total biocide in liquid paint
Method: as §1, §2, §3, §4, §5, §6

Compound | inhibition at 2000 ppm ([1]; 504 h, total conc 2000 ppm, visible algal growth vs blank) | Total conc (concentration chosen as minimum inhibitory concentration for SI) [1] | inhibition at 5000 ppm [2] | Total conc (concentration chosen as minimum inhibitory concentration for SI) [2] | inhibition at 5000 ppm ([1]; 504 h, total conc 5000 ppm, visible algal growth vs blank)
CCNc1nc(NC(C)(C)C)nc(SC)n1 [Terbutryn, N^2-tert-butyl-N^4-ethyl-6-methylthio-1,3,5-triazine-2,4-diamine] | 85% | 2000 ppm | 80% | 5000 ppm | –
CCC(C)(NC(=O)c1cc(Cl)c(C)c(Cl)c1)C(=O)CCl (centres unmarked) [Zoxamide, 3,5-Dichloro-N-(3-chloro-1-ethyl-1-methyl-2-oxopropyl)-4-methylbenzamide] | – | 5000 ppm | 45% | 5000 ppm | 60%
